Laboratory results taken from ChEMBL document CHEMBL2384962, “Design, synthesis and evaluation of some new 4-aminopyridine derivatives in learning and memory” (Bioorg Med Chem Lett, 2013).
pIC50, pKi: −log10 of the molar value. Active and inactive are the calls of the source. No cut-off for these calls is given here.

Experiments:
Rattus norvegicus [1] = experiment: Acute toxicity in Charles Foster albino rat assessed as tremors up to 100 mg/kg, po after 48 hrs; type: organism-based; set-up: dose 100 mg/kg, route oral; details: in vivo
Rattus norvegicus [2] = experiment: In vivo inhibition of AChE-mediated substrate hydrolysis in Charles Foster albino rat hippocampus at 5 to 10 mg/kg, po administered for 8 days measured 1 hr post last dose; type: functional, organism-based; set-up: dose 5 to 10 mg/kg, route oral
Rattus norvegicus [3] = experiment: Antiamnesic activity in Charles Foster albino rat assessed as reduction in scopolamine-induced increase in transfer latency at 5 mg/kg, po administered for 8 days measured 1 hr post last dose by elevated plus maze task (reference value: 62.50 +/- 0.76 s); type: functional
Rattus norvegicus [4] = experiment: Acute toxicity in Charles Foster albino rat assessed as convulsions up to 100 mg/kg, po after 48 hrs; type: organism-based; set-up: dose 100 mg/kg, route oral; details: in vivo
Rattus norvegicus [5] = experiment: Acute toxicity in Charles Foster albino rat assessed as sleep up to 100 mg/kg, po after 48 hrs; type: organism-based; set-up: dose 100 mg/kg, route oral; details: in vivo
Rattus norvegicus [6] = experiment: Antiamnesic activity in po dosed Charles Foster albino rat assessed as reduction in scopolamine-induced increase in transfer latency after 7 to 8 days by elevated plus maze task; type: functional, organism-based
Acetylcholinesterase [7] = biological target: T1, Acetylcholinesterase (Electrophorus electricus, UniProt O42275); experiment: Inhibition of electric eel AChE using […] as substrate incubated for 20 mins prior to substrate addition by Ellman method
T1 sequence (O42275 whole entry): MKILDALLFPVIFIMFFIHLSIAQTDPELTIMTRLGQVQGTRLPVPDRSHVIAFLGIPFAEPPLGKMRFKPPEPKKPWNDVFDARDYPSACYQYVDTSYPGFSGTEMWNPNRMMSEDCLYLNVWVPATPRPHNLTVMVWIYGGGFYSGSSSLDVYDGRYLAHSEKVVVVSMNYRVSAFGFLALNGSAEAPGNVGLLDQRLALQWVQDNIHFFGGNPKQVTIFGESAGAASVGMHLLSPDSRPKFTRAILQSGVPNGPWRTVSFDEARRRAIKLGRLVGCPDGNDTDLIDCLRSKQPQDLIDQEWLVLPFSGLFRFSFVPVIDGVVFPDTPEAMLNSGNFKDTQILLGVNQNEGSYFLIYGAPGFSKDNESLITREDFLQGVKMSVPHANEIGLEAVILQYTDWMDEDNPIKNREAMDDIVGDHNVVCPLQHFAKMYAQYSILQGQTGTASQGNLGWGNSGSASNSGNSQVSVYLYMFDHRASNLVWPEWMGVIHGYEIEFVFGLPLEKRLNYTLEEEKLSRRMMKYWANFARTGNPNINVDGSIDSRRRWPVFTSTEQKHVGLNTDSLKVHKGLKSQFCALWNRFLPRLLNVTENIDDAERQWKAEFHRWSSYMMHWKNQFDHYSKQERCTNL

Rattus norvegicus [8] = experiment: Acute toxicity in Charles Foster albino rat assessed as lacrimation up to 100 mg/kg, po after 48 hrs; type: organism-based; set-up: dose 100 mg/kg, route oral; details: in vivo
Rattus norvegicus [9] = experiment: Acute toxicity in Charles Foster albino rat assessed as feeding behaviour up to 100 mg/kg, po after 48 hrs; type: organism-based; set-up: dose 100 mg/kg, route oral; details: in vivo
Rattus norvegicus [10] = experiment: Acute toxicity in Charles Foster albino rat assessed as mortality up to 100 mg/kg, po after 48 hrs; type: organism-based; set-up: dose 100 mg/kg, route oral; details: in vivo
Rattus norvegicus [11] = experiment: Acute toxicity in Charles Foster albino rat assessed as blood pressure up to 100 mg/kg, po after 48 hrs; type: organism-based; set-up: dose 100 mg/kg, route oral; details: in vivo
Cholinesterase [12] = biological target: T2, Cholinesterase (Homo sapiens, UniProt P06276); experiment: Inhibition of human serum BChE using butyrylthiolcholine iodide as substrate incubated for 20 mins prior to substrate addition by Ellman's method
T2 sequence (P06276 whole entry): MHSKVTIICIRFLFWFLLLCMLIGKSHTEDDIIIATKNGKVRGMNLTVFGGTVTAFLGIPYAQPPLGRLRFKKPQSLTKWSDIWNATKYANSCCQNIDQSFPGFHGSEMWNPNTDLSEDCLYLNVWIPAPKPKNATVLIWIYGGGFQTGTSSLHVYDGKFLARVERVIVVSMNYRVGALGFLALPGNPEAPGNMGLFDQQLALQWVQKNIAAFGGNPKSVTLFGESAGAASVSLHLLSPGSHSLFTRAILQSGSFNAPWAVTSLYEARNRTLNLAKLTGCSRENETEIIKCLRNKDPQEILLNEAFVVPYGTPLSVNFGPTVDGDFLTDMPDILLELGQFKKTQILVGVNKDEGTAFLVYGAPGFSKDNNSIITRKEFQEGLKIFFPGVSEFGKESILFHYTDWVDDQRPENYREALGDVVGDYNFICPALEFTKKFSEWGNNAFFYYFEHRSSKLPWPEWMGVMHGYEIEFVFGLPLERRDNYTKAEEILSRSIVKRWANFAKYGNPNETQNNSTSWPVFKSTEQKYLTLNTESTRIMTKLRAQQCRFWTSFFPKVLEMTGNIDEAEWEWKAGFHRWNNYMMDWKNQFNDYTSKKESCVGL

Rattus norvegicus [13] = experiment: In vivo inhibition of AChE-mediated substrate hydrolysis in Charles Foster albino rat prefrontal cortex at 5 to 10 mg/kg, po administered for 8 days measured 1 hr post last dose; type: functional, organism-based
Rattus norvegicus [14] = experiment: Acute toxicity in Charles Foster albino rat assessed as pulse rate up to 100 mg/kg, po after 48 hrs; type: organism-based; set-up: dose 100 mg/kg, route oral; details: in vivo
[15] = Selectivity ratio of IC50 for human serum BChE to IC50 for electric eel AChE
Rattus norvegicus [16] = experiment: Antiamnesic activity in Charles Foster albino rat assessed as reduction in scopolamine-induced increase in transfer latency at 10 mg/kg, po administered for 8 days measured 1 hr post last dose by elevated plus maze task (reference value: 62.50 +/- 0.76 s); type: functional
Rattus norvegicus [17] = experiment: In vivo inhibition of AChE-mediated substrate hydrolysis in Charles Foster albino rat hypothalamus at 5 to 10 mg/kg, po administered for 8 days measured 1 hr post last dose; type: functional, organism-based; set-up: dose 5 to 10 mg/kg, route oral
Rattus norvegicus [18] = experiment: Acute toxicity in Charles Foster albino rat assessed as salivation up to 100 mg/kg, po after 48 hrs; type: organism-based; set-up: dose 100 mg/kg, route oral; details: in vivo
Rattus norvegicus [19] = experiment: Antiamnesic activity in Charles Foster albino rat assessed as reduction in scopolamine-induced increase in transfer latency at 5 mg/kg, po administered for 7 days measured 1 hr post last dose by elevated plus maze task (reference value: 67.67 +/- 0.88 s); type: functional
Rattus norvegicus [20] = experiment: Acute toxicity in Charles Foster albino rat assessed as diarrhoea up to 100 mg/kg, po after 48 hrs; type: organism-based; set-up: dose 100 mg/kg, route oral; details: in vivo
Rattus norvegicus [21] = experiment: Antiamnesic activity in Charles Foster albino rat assessed as reduction in scopolamine-induced increase in transfer latency at 10 mg/kg, po administered for 7 days measured 1 hr post last dose by elevated plus maze task (reference value: 67.67 +/- 0.88 s); type: functional
Rattus norvegicus [22] = experiment: Acute toxicity in Charles Foster albino rat assessed as heart rate up to 100 mg/kg, po after 48 hrs; type: organism-based; set-up: dose 100 mg/kg, route oral; details: in vivo
Cholinesterase [23] = biological target: T2, Cholinesterase; experiment: Competitive inhibition of human serum BChE using butyrylthiolcholine iodide as substrate by Lineweaver-Burk plot analysis
Acetylcholinesterase [24] = biological target: T1, Acetylcholinesterase; experiment: Non-competitive inhibition of electric eel AChE using […] as substrate by Lineweaver-Burk plot analysis

Row | Structure (SMILES) | Activity (Rattus norvegicus [1]) | inhibition (Rattus norvegicus [2]) | Time (Rattus norvegicus [3]) [s] | Activity (Rattus norvegicus [4]) | Activity (Rattus norvegicus [5]) | Activity (Rattus norvegicus [6]) | pIC50 (Acetylcholinesterase [7]) | Activity (Rattus norvegicus [8]) | Activity (Rattus norvegicus [9]) | Activity (Rattus norvegicus [10]) | Activity (Rattus norvegicus [11]) | pIC50 (Cholinesterase [12]) | inhibition (Rattus norvegicus [13]) | Activity (Rattus norvegicus [14]) | Ratio IC50 [15] | Time (Rattus norvegicus [16]) [s] | inhibition (Rattus norvegicus [17]) | Activity (Rattus norvegicus [18]) | Time (Rattus norvegicus [19]) [s] | Activity (Rattus norvegicus [20]) | also measured
1 | O=C1CCC(=O)N1c1ccncc1 | Non-toxic | Active | 60.67 | Non-toxic | Non-toxic | Dose-dependent effect | 6.31 | Non-toxic | Non-toxic | Non-toxic | Non-toxic | 5.42 | Active | Non-toxic | 7.79 | 58.33 | Active | Non-toxic | 66.83 | Non-toxic | Time (Rattus norvegicus [21]): 65.5 s; Activity (Rattus norvegicus [22]): Non-toxic
2 | O=C1C=CC(=O)N1c1ccncc1 | Non-toxic | Active | 56.33 | Non-toxic | Non-toxic | Dose-dependent effect | 7.52 | Non-toxic | Non-toxic | Non-toxic | Non-toxic | 4.96 | Active | Non-toxic | 367 | 53.83 | Active | Non-toxic | 64.67 | Non-toxic | pKi (Cholinesterase [23]): 4.81; pKi (Acetylcholinesterase [24]): 7.38; Time (Rattus norvegicus [21]): 61.33 s; Activity (Rattus norvegicus [22]): Non-toxic
3 | O=C(O)/C=C\C(=O)Nc1ccncc1 | Non-toxic | Active | 75.33 | Non-toxic | Non-toxic | Dose-dependent effect | 4.31 | Non-toxic | Non-toxic | Non-toxic | Non-toxic | 3.18 | Active | Non-toxic | 13.5 | 72.5 | Active | Non-toxic | 80.5 | Non-toxic | Time (Rattus norvegicus [21]): 77.67 s; Activity (Rattus norvegicus [22]): Non-toxic
4 | O=C(O)CCC(=O)Nc1ccncc1 | Non-toxic | Active | 71.67 | Non-toxic | Non-toxic | Dose-dependent effect | 4.39 | Non-toxic | Non-toxic | Non-toxic | Non-toxic | 4.25 | Active | Non-toxic | 1.39 | 70 | Active | Non-toxic | 77.67 | Non-toxic | Time (Rattus norvegicus [21]): 74.83 s; Activity (Rattus norvegicus [22]): Non-toxic
